Values of other authors as cited in US20080221127A1, “PPAR ACTIVE COMPOUNDS” (Plexxikon Inc, priority 2007, published 2008).

Legend:
[1] = molecular target: T1, PPARδ (Homo sapiens, UniProt Q03181)
T1 sequence (Q03181 1-441): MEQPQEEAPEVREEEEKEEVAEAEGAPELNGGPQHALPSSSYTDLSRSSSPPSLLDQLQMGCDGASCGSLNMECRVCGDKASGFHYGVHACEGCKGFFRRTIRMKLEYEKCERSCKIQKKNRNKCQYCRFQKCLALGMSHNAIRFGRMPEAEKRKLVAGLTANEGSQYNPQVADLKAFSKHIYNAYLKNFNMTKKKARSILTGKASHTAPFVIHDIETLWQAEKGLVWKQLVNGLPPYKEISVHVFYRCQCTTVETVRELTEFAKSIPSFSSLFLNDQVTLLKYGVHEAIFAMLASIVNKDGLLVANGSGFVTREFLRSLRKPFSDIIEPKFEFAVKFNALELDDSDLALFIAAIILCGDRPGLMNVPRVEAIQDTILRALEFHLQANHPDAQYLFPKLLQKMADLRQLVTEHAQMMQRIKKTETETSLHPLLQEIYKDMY

[2] = molecular target: T2, murine PPARα (Mus musculus, UniProt P23204)
T2 sequence (P23204 1-468): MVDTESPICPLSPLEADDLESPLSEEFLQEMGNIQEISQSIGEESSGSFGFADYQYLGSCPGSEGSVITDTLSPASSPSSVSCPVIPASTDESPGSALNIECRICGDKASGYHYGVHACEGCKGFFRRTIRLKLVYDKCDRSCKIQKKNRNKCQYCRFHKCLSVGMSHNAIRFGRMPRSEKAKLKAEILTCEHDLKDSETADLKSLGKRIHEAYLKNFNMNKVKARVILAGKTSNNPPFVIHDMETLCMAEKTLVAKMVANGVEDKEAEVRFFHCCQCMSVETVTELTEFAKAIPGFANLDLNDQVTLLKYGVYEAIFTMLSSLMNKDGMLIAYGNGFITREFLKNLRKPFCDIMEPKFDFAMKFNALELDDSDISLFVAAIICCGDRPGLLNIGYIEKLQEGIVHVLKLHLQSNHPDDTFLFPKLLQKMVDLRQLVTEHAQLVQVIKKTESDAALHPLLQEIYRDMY

**Q.** What does the source list for CCCc1c(OCCCOc2ccc(OCC(=O)O)cc2)ccc(C(C)=O)c1O [L-165041]?
**A.** agonist selectivity for PPARδ over PPARγ [1]: approximately 30 fold; activity on murine PPARα [2]: inactive
